Source: patent US20170216401A1, “COMBINATION FOR USE IN A METHOD OF TREATING CANCER” (priority 2014, published 2017)

Key:
[1] = test system: TGF-beta signal transduction; settings: p-SMAD2 western blot (Gaspar et al., 2007); cited from earlier work
[2] = test system: human glioma cells HTZ-349 and A-172; assay: cell-mediated tumor cytotoxicity assay, calcein release (CARE-LASS); assay type: cell-based; settings: PBMC and target cells preincubated 6 days with SD-208, IL-2 and GM-CSF; effector/target 1:100, 1:10, 1:1; 4 hours; FIG. 2
Experimental: Establishment and culture of primary tumor cell cultures were performed as previously described (Jachimczak et al., 1993). Briefly, tumor specimens were cultivated in Dulbecco's minimum essential medium (DMEM) containing 10% FCS, 1% BME vitamin solution, and 1% MEM nonessential amino acids. HTZ-349 was established as primary cell culture from a patient suffering from glioblastoma multiforme (GBM, Grade IV). A-172 cells were obtained from ATCC (GBM). Peripheral blood mononuclear cells (PBMC) were isolated from venous blood of two healthy donors by standard Ficoll-Hypaque gradient centrifugation (Jachimczak et al., 1993).
PBMC were activated with IL-2 (Proleukin S) and GM-CSF. Immune cell cytotoxicity against the target tumor cells was determined in a calcein-release assay (Lichtenfels et al., 1994) by adding pre-activated PBMC to glioma target cells at an effector/target ratio of 1:100, 1:10 and 1:1. After 4 hours, fluorescence of supernatants was analyzed (Fluoroscan, Germany) and calculated as described (Lichtenfels et al., 1994).

Fc1ccc(Cl)cc1-c1nc(Nc2ccncc2)c2nccnc2n1 [SD-208]
inhibition of TGF-beta signal transduction [1]: inhibits TGF-beta signal transduction in a dose-dependent fashion | allogenous cell cytotoxicity against glioma target cells [2]: enhanced
